Values joined by “and” are separate entries in the source; they are usually repeats but may differ in a detail not shown here. Equal values may be shown once. After the bases stand the sugars from the 5' end (letter, count) and the backbone: PS all phosphorothioate, else s phosphorothioate and o phosphodiester by linkage. Methylation of C is not given here. e = 2'-O-(2-methoxyethyl) (MOE); k = constrained ethyl (cEt); d = 2'-deoxy (DNA)
Biological target: SOD1
Conditions: ASO

Sequence “GTGTTTAATGTTTATCAG (sugars e5 d8 e5, linkages s1 o3 s9 o2 s2)” has a target mRNA inhibition (A431, 0.12 µM) of 1%, a target mRNA inhibition (A431, 0.6 µM) of 15% and a target mRNA inhibition (A431, 3 µM) of 36%. For the same sequence, the target mRNA inhibition (A431, 15 µM) was 50%, the target mRNA inhibition (HepG2, 0.222 µM) was 20% and the target mRNA inhibition (HepG2, 0.667 µM) was 43%. It also gave a target mRNA inhibition (HepG2, 2 µM) of 56% and a target mRNA inhibition (HepG2, 6 µM) of 81%.
“GTTTAATGTTTATCAG (sugars ekddddddddekekee, linkages s1 o1 s8 o3 s2)” showed a target mRNA inhibition (A431, 0.12 µM) of 2%, a target mRNA inhibition (A431, 0.6 µM) of 19% and a target mRNA inhibition (A431, 3 µM) of 33%. For the same sequence, the target mRNA inhibition (A431, 15 µM) was 62%, the target mRNA inhibition (HepG2, 0.222 µM) was 44% and the target mRNA inhibition (HepG2, 0.667 µM) was 63%. It also gave a target mRNA inhibition (HepG2, 2 µM) of 82% and a target mRNA inhibition (HepG2, 6 µM) of 94%.
Work on “GTTTAATGTTTATCAGG (sugars e2 k2 d9 k2 e2, PS)” yielded a target mRNA inhibition (HepG2, 0.1875 µM) of 67%, a target mRNA inhibition (HepG2, 0.75 µM) of 84% and a target mRNA inhibition (HepG2, 3 µM) of 94%. It also gave a target mRNA inhibition (HepG2, 5 µM) of 92% and a target mRNA inhibition (HepG2, 12 µM) of 96%.
For “GTTTATTGGGCGATCCC (sugars e2 k2 d8 k2 e3, PS)”, the target mRNA inhibition (HepG2, 4 µM) was 54%.
Work on “GTTTATTGGGCGATCCC (sugars e3 k2 d7 k2 e3, PS)” yielded a target mRNA inhibition (HepG2, 3 µM) of 18%.
For “GTTTTCTGGATAGAGGATTA (sugars e5 d10 e5, PS)”, the target mRNA inhibition (HepG2, 5 µM) was 28% and 39%.
“TAAGATTACAGTGTTTA (sugars e3 k2 d7 k2 e3, PS)” gave a target mRNA inhibition (HepG2, 3 µM) of 54%.
Sequence “TAATGTTTATCAGGATA (sugars e2 k2 d8 k2 e3, PS)” has a target mRNA inhibition (HepG2, 0.1875 µM) of 48%, a target mRNA inhibition (HepG2, 0.75 µM) of 78% and a target mRNA inhibition (HepG2, 3 µM) of 91%. The target mRNA inhibition (HepG2, 4 µM) was 90% and the target mRNA inhibition (HepG2, 12 µM) was 95%.
With “TAATGTTTATCAGGATA (sugars e2 k2 d8 k2 e3, linkages s1 o2 s9 o2 s2)” the target mRNA inhibition (A431, 0.12 µM) was 0%, the target mRNA inhibition (A431, 0.6 µM) was 38% and the target mRNA inhibition (A431, 3 µM) was 54%. The target mRNA inhibition (A431, 15 µM) was 68%, the target mRNA inhibition (HepG2, 0.222 µM) was 64% and the target mRNA inhibition (HepG2, 0.667 µM) was 89%. The target mRNA inhibition (HepG2, 2 µM) was 94% and the target mRNA inhibition (HepG2, 6 µM) was 92%.
“TACACCACAAGCCAAAC (sugars e2 k2 d8 k2 e3, PS)” showed a target mRNA inhibition (HepG2, 4 µM) of 56%.
With “TACAGCTAGCAGGATAA (sugars e2 k2 d9 k2 e2, PS)” the target mRNA inhibition (HepG2, 0.1875 µM) was 24%, the target mRNA inhibition (HepG2, 0.75 µM) was 71% and the target mRNA inhibition (HepG2, 3 µM) was 85%. For the same sequence, the target mRNA inhibition (HepG2, 4 µM) was 86% and the target mRNA inhibition (HepG2, 12 µM) was 98%.
“TACAGGGTTTTTATTCA (sugars e2 k2 d8 k2 e3, PS)” gave a target mRNA inhibition (HepG2, 5 µM) of 13%.
“TACAGGTCATTGAAACA (sugars e2 k2 d8 k2 e3, PS)” was tested, and the target mRNA inhibition (HepG2, 5 µM) was 26%.
Sequence “TACAGGTCATTGAAACA (sugars e3 k2 d7 k2 e3, PS)” has a target mRNA inhibition (HepG2, 3 µM) of 9%.
In the case of “TACCCATCTGTGATTTA (sugars e2 k2 d8 k2 e3, PS)”, the target mRNA inhibition (HepG2, 5 µM) is reported as 29%.
“TACCCATCTGTGATTTAAGT (sugars e5 d10 e5, PS)” gave a target mRNA inhibition (HepG2, 5 µM) of 50%.
“TACTTTCCTTCTGCTCG (sugars e3 k2 d7 k2 e3, PS)” gave a target mRNA inhibition (HepG2, 3 µM) of 14%.
For “TAGACACATCGGCCACACCA (sugars e5 d10 e5, PS)”, the target mRNA inhibition (HepG2, 5 µM) was 46% and 36%.
Sequence “TAGAGGATTAAAGTGAG (sugars e3 k2 d7 k2 e3, PS)” has a target mRNA inhibition (HepG2, 3 µM) of 21%.
“TAGGCCAGACCTCCGCGCCT (sugars e5 d10 e5, PS)” gave a target mRNA inhibition (HepG2, 4 µM) of 33%.
In the case of “TATTCACAGGCTTGAAT (sugars e2 k2 d8 k2 e3, PS)”, the target mRNA inhibition (HepG2, 5 µM) is reported as 24%.
Sequence “TATTCACAGGCTTGAAT (sugars e2 k2 d9 k2 e2, PS)” has a target mRNA inhibition (HepG2, 5 µM) of 11%.
“TATTCACAGGCTTGAAT (sugars e3 k2 d7 k2 e3, PS)” gave a target mRNA inhibition (HepG2, 3 µM) of 0%.
“TATTGGGCGATCCCAAT (sugars e2 k2 d8 k2 e3, PS)” was tested, and the target mRNA inhibition (HepG2, 4 µM) was 19%.
“TATTGGGCGATCCCAAT (sugars e2 k2 d9 k2 e2, PS)” showed a target mRNA inhibition (HepG2, 4 µM) of 6%.
In the case of “TCAGGATACATTTCTACAGC (sugars e5 d10 e5, PS)”, the target mRNA inhibition (HepG2, 0.1875 µM) is reported as 13%, the target mRNA inhibition (HepG2, 0.75 µM) is reported as 42% and the target mRNA inhibition (HepG2, 3 µM) is reported as 75%. The target mRNA inhibition (HepG2, 5 µM) was 70% and the target mRNA inhibition (HepG2, 12 µM) was 92%.
Work on “TCAGTTTCTCACTACAG (sugars e2 k2 d8 k2 e3, PS)” yielded a target mRNA inhibition (HepG2, 5 µM) of 25%.
“TCATAATAAGTGCCATACAG (sugars e5 d10 e5, PS)” showed a target mRNA inhibition (HepG2, 5 µM) of 0%.
“TCATCTGCTTTTTCATG (sugars e3 k2 d7 k2 e3, PS)” was tested, and the target mRNA inhibition (HepG2, 3 µM) was 71%.
“TCATTGAAACAGACATT (sugars e3 k2 d7 k2 e3, PS)” showed a target mRNA inhibition (HepG2, 3 µM) of 10%.
In the case of “TCCAAGGGAATGTTTAT (sugars e2 k2 d8 k2 e3, PS)”, the target mRNA inhibition (HepG2, 4 µM) is reported as 27%.
In the case of “TCCAAGGGAATGTTTAT (sugars e2 k2 d9 k2 e2, PS)”, the target mRNA inhibition (HepG2, 4 µM) is reported as 57%.
Sequence “TCCAAGTGATCATAAAT (sugars e2 k2 d9 k2 e2, PS)” has a target mRNA inhibition (HepG2, 5 µM) of 39%.
Sequence “TCCTTTGGCCCACCGTG (sugars e3 k2 d7 k2 e3, PS)” has a target mRNA inhibition (HepG2, 3 µM) of 39%.
Work on “TCTACAGCTAGCAGGAT (sugars e2 k2 d9 k2 e2, PS)” yielded a target mRNA inhibition (HepG2, 0.1875 µM) of 27%, a target mRNA inhibition (HepG2, 0.75 µM) of 61% and a target mRNA inhibition (HepG2, 3 µM) of 85%. It also gave a target mRNA inhibition (HepG2, 4 µM) of 83% and a target mRNA inhibition (HepG2, 12 µM) of 96%.

Source: the OligoGym collection
